What was measured:
[1] = target: calcineurin (Homo sapiens, UniProt Q08209, L343A/M347D/Y341S); assay: 1H NMR titration spectroscopy binding experiments; settings: 10 μM compound, 20 μM calcineurin, 25° C., buffered D2O
Procedure: T2-filtered ^1H NMR spectra were obtained on a Bruker Avance 600 instrument with CryoPhobe using low-power presaturation of residual water. Preacquisition delays included up to five spin echos to suppress fast-relaxing broad protein resonances and were times to yield in-phase signals for J-coupled spins. Chemical shifts were referenced to internal standard 5 μM 2,2-dimethylsilapentane-5-sulfonic acid (DSS).

[2] = test system: nuclear import of NFAT in C1.7W2 T cells; assay: NFAT1 immune staining assay, nuclear import in C1.7W2 T cells; format: cell-based, murine; settings: INCA6 20 μM or 40 μM; CsA/FK506 1 μM/100 nM; 1 μM ionomycin 15 min
Procedure: For an immune staining assay, C1.7W2 T cells growing on coverslips in Dulbecco's modified Eagle medium, supplemented with 10% fetal calf serum, 10 mM HEPES, and 2 mM glutamine, at 37 C. were pretreated with medium alone, with INCA6 (20 μM or 40 μM), or with CsA/FK506 (1 μM/100 nM) for 10 min, then stimulated for an additional 15 min with 1 μM ionomycin, in medium alone or in the continued presence of inhibitor as appropriate. Medium was removed, and the cells were fixed, permeabilized, and stained using the anti-67.1 antiserum against NFAT1 (A Ho et al (1994) J Biol Chem 269, 28181-28186) and a fluorescent second antibody.

[3] = test system: NFAT dephosphorylation by calcineurin in C1.7W2 T cells; assay: ionomycin-induced NFAT dephosphorylation in C1.7W2 T cells, Western blot; format: cell-based, murine; settings: 1 μM ionomycin 15 min
Procedure: For the dephosphorylation assay, C1.7W2 T cells were pretreated in Dulbecco's modified Eagle medium, supplemented with 10% fetal calf serum, 10 mM HEPES, and 2 mM glutamine, at 37 C. with INCA6 (5-40 μM) for 10 min, then stimulated for an additional 15 min with 1 μM ionomycin in the continued presence of inhibitor. Control incubations omitted INCA6, ionomycin, or both. DMSO was present at equal concentrations in all incubations. Cells were collected by centrifugation and lysed in Laemmli sample buffer. Samples were analyzed by SDS-polyacrylamide gel electrophoresis according to Laemmli (U K Laemmli (1970) Nature 227, 680-685) using a 6% separating gel, transferred to nitrocellulose membrane, and probed with an antiserum to NFAT1.

[4] = target: T1, recombinant human calcineurin catalytic domain, calcineurin(2-347) (Homo sapiens, UniProt Q08209, L343A/M347D/Y341S); assay: fluorescence polarization competition assay, displacement of OG-VIVIT from calcineurin; format: binding
T1 construct: GST (N, cleaved yes); made in house; host or cells: E. coli strain DH5α
T1 sequence (Q08209 2-347 Y341S/L343A/M347D): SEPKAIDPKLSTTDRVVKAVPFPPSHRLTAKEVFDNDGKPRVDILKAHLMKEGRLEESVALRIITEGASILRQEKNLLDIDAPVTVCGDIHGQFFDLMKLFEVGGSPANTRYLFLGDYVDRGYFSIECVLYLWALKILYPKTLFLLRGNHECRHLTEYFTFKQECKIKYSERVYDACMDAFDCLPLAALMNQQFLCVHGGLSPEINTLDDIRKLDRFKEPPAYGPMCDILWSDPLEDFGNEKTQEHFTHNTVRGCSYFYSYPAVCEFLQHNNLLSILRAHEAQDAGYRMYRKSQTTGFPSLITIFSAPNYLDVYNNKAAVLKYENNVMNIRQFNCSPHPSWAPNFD
Procedure: Samples were analyzed as described in the preceding paragraph, and the resulting polarization data were plotted against the concentration of unlabelled VIVIT peptide, as shown in FIG. 8B.
The library stocks were dissolved at a nominal concentration of 10 mM in DMSO, and formatted for convenient robotic transfer on 384-well plates at the Institute of Chemistry and Cell Biology, Harvard Medical School. To initiate the competition assay, 40 nl volumes were pin-transferred from each well of a library stock plate to the corresponding wells of an assay plate, utilizing a robotic device. After a minimum 10 min incubation at room temperature to allow the binding to reach equilibrium, fluorescence polarization data were collected employing an Analyst plate reader (Molecular Devices).
Stocks of candidate inhibitor compounds and their structural analogues were purchased from ChemBridge or Asinex. The structure and purity of individual compounds were verified by ^1H NMR, mass spectrometry, or thin-layer chromatography. […] INCA1, INCA2, and INCA6 can be represented generally as follows: […]

[5] = test system: PMA-MAP kinase signalling pathway in C1.7W2 T cells; assay: phosphorylation of p44/p42 MAP kinase in PMA-stimulated C1.7W2 T cells; format: cell-based, murine; settings: INCA6 pretreatment; 20 nM PMA 15 min
Procedure: Dephosphorylation of NFAT is evident in the shift of the stained NFAT band the sample from cells that were stimulated with ionomycin in the absence of inhibitor (FIG. 12A, lane 2). […] Activation of the latter pathway was monitored by examining phosphorylation of p44/p42 MAP kinase. For this assay the cells were pretreated and incubated as for the NFAT dephosphorylation assay, except that stimulation was for 15 min with 20 nM PMA. Cells were collected by centrifugation, lysed in Laemmli sample buffer, and analyzed by Western blotting with an anti-phospho-p44/p42 MAP kinase antibody (Cell Signaling Technology).

[6] = test system: cytokine mRNAs in C1.7W2 T cells; assay: RNase protection assay of cytokine mRNAs in C1.7W2 T cells stimulated with PMA and ionomycin; format: cell-based, murine
Procedure: The effects of INCA6 on transcription were examined in the case of several cytokine mRNAs that are known targets of calcineurin-NFAT signalling. C1.7W2 T cells were preincubated for 10 min. in medium alone, in medium containing INCA6, or in medium containing CsA and FK506, then stimulated under conditions that normally initiate signalling through the calcium-calmodulin-calcineurin-NFAT pathway. Cells in control samples that had not been pretreated with inhibitor were left unstimulated, or were stimulated for 45 min with 20 nM PMA alone, or with 20 nM PMA and 1 μM ionomycin. Cells in parallel samples that had been pretreated for 10 min with inhibitor were then further incubated for 45 min without stimulation or with PMA and ionomycin, in the continued presence of inhibitor. At the end of the incubation, cells were harvested and total cellular RNA was extracted using Ultraspec RNA-binding resin (Biotecx Laboratories). Levels of cytokine mRNAs were analyzed by RNase protection assays performed with RiboQuant multiprobe kits (Pharmingen) following the instructions of the manufacturer. Briefly, for each sample 10 μg of target RNA was hybridized overnight to a ^32P-labelled RNA probe that had been synthesized in vitro from a template set representing multiple murine cytokine mRNAs, and then the unhybridized probe and other single-stranded RNAs were digested with RNases. The protected RNAs were purified, and probes for the individual cytokine mRNAs were resolved on a denaturing 6% polyacrylamide gel. Transcript levels were quantified by autoradiography and by use of a phosphorimager (Molecular Dynamics). Probes for the individual cytokine transcripts were identified by the length of the respective protected fragments. The results are presented in FIGS. 14A to 14C, which are pictures of RNA gel autoradiograms. Data were corrected for minor variations in RNA loading by normalizing the data for each sample to the intensity of the signal for the housekeeping transcripts L32 and GAPDH (see lower panels of FIGS. 14A, 14B, and 14C).

calcineurin, sequence (Q08209 2-347 Y341S/L343A/M347D limits assumed): as the sequence (Q08209 2-347 Y341S/L343A/M347D) above

- binding to calcineurin in the absence of VIVIT peptide [1]: direct molecular interaction
- Ki [4]: 0.8 to 5 µM
- displacement of OG-VIVIT from calcineurin ([4]; at high concentrations, 1 μM calcineurin, 60 nM OG-VIVIT): complete
- IC50 ([4]; calcineurin-VIVIT peptide interaction, read-out: Estimated IC50): 17 µM
Compound: O=C1C=CC(=O)C2=C1C1c3ccccc3C2c2ccccc21 [INCA6]
- localization of NFAT immune staining in ionomycin-stimulated cells [2]: localized to the cytoplasm
- blockade of NFAT dephosphorylation in cells ([3]; 10 μM INCA6): partial
- blockade of NFAT dephosphorylation in cells ([3]; 20 μM INCA6): nearly complete
- blockade of NFAT dephosphorylation in cells ([3]; 40 μM INCA6): total
- activation of the PMA-MAP kinase signalling pathway (phosphorylation of p44/p42 MAP kinase) [5]: not blocked
- induction of GM-CSF mRNA ([6]; 20 μM INCA6, 20 nM PMA and 1 μM ionomycin 45 min): partially prevented
- induction of lymphotactin (Ltn), MIP1β, and MIP-1α mRNAs ([6]; 20 μM INCA6, PMA and ionomycin): partially blocked
- induction of TNFα mRNA ([6]; 20 μM or 40 μM INCA6, CsA/FK506, PMA and ionomycin): inhibited
- induction of GM-CSF mRNA ([6]; 40 μM INCA6, CsA/FK506 1 μM/100 nM, PMA and ionomycin 45 min): fully blocked
- induction of lymphotactin (Ltn), MIP1β, and MIP-1α mRNAs ([6]; 40 μM INCA6, CsA/FK506, PMA and ionomycin): fully blocked
- induction of IFNγ mRNA ([6]; INCA6, CsA/FK506, PMA and ionomycin): inhibited
- levels of TNFβ, RANTES, and IP-10 mRNAs ([6]; not downstream targets of NFAT): unaffected
- basal level of GM-CSF mRNA ([6]; unstimulated cells): not affected

Source: patent US20040002117A1 (priority 1998, published 2004)
